Test results from US20230312605A1, “PYRROLO[2,1-F][1,2,4]TRIAZINES AND PREPARATION AND USES THEREOF” (BioSplice Therapeutics, Inc., priority 2021, published 2023).

biological target: recombinant DYRK1A kinase (Homo sapiens (Human), UniProt Q13627); assay: DYRK1A kinase assay (Ser/Thr 18 peptide Z-lyte FRET assay); assay type: biochemical; details: recombinant DYRK1A 0.25 µg/mL, ATP 15 µM, Ser/Thr peptide 18 4 µM, one hour at room temperature; table head prints EC50, method says IC50
Method in brief: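 Recombinant human DYRK1A (0.25 µg/mL) with 15 µM ATP and 4 µM Ser/Thr 18 peptide was incubated 1 h at room temperature with compound (11-point, 10 µM top), in duplicate. Z-lyte FRET read-out (coumarin/fluorescein emission ratio) was converted to percent phosphorylation; IC50 from non-linear regression.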

Row | Compound | EC50 [nM]
1 | CC(=O)N[C@]1(C)C[C@@H](Nc2ncc3c(-c4ccc5ncccc5c4)ccn3n2)C1 [Compound 1980] | 1
2 | c1cn2cc(-c3ccn4nc(NC5CCOCC5)ncc34)ccc2n1 [Compound 67, 5-(Imidazo[1,2-a]pyridin-6-yl)-N-(tetrahydro-2H-pyran-4-yl)pyrrolo[2,1-f] [1,2,4]triazin-2-amine] | 40
3 | FC(F)(F)CCNc1ncc2c(-c3cnc4nccn4c3)ccn2n1 [Compound 220, 5-(Imidazo[1,2-a]pyrimidin-6-yl)-N-(3,3,3-trifluoropropyl)pyrrolo[2,1-f] [1,2,4]triazin-2-amine] | 14
4 | c1cn2cc(-c3ccn4nc(NC5CCC5)ncc34)cnc2n1 [Compound 235, N-Cyclobutyl-5-(imidazo[1,2-a]pyrimidin-6-yl)pyrrolo[2,1-f][1,2,4]triazin-2-amine] | 377
5 | Cc1nc2ccc(-c3ccn4nc(NC5CCN(C(=O)[C@H]6CC6(F)F)CC5)ncc34)nc2n1CC(F)F [Compound 1918, (R)-(2,2-Difluorocyclopropyl)(4-((5-(3-(2,2-difluoroethyl)-2-methyl-3H-imidazo[4,5-b]pyridin-5-yl)pyrrolo[2,1-f] [1,2,4]triazin-2-yl)amino)piperidin-1-yl)methanone] | 7
6 | Cc1nc2ccc(-c3ccn4nc(NC[C@@H](C)O)ncc34)nc2n1CC(F)F [Compound 1831, (R)-1-((5-(3-(2,2-Difluoroethyl)-2-methyl-3H-imidazo[4,5-b]pyridin-5-yl)pyrrolo [2,1-f] [1,2,4]triazin-2-yl)amino)propan-2-ol] | 7
7 | c1cnc2ccc(-c3ccn4nc(NC5CC6(CNC6)C5)ncc34)cc2c1 [Compound 1747, 5-(Quinolin-6-yl)-N-(2-azaspiro[3.3]heptan-6-yl)pyrrolo[2,1-f][1,2,4]triazin-2-amine] | 3
8 | Cc1nc2ccc(-c3ccn4nc(N[C@H]5C[C@@](C)(O)C5)ncc34)nc2n1CC(F)F [Compound 1819, cis-3-((5-(3-(2,2-Difluoroethyl)-2-methyl-3H-imidazo [4,5-b]pyridin-5-yl)pyrrolo[2,1-f] [1,2,4]triazin-2-yl)amino)-1-methylcyclobutan-1-ol] | 3
9 | CN1CC2(CC(Nc3ncc4c(-c5ccc6ncccc6c5)ccn4n3)C2)C1 [Compound 1348, N-(2-Methyl-2-azaspiro[3.3]heptan-6-yl)-5-(quinolin-6-yl)pyrrolo[2,1-f] [1,2,4]triazin-2-amine] | 5
10 | COC[C@@H](C)Nc1ncc2c(-c3cnc4nccn4c3)ccn2n1 [Compound 223, (R)-5-(Imidazo[1,2-a]pyrimidin-6-yl)-N-(1-methoxypropan-2-yl)pyrrolo[2,1-f][1,2,4]triazin-2-amine] | 101
11 | Cc1nc2ccc(-c3ccn4nc(N[C@H](C)CO)ncc34)nc2n1CC(F)F [Compound 1830, (R)-2-((5-(3-(2,2-Difluoroethyl)-2-methyl-3H-imidazo[4,5-b]pyridin-5-yl)pyrrolo[2,1-f][1,2,4]triazin-2-yl)amino)propan-1-ol] | 16
12 | Cc1nc2ccc(-c3ccn4nc(N[C@H]5CCCOC5)ncc34)nc2n1CC(F)F [Compound 1864, (S)-5-(3-(2,2-Difluoroethyl)-2-methyl-3H-imidazo[4,5-b]pyridin-5-yl)-N-(tetrahydro-2H-pyran-3-yl)pyrrolo[2,1-f][1,2,4]triazin-2-amine] | 3
13 | Cc1nc2ccc(-c3ccn4nc(NC5CCC(F)(F)CC5)ncc34)nc2n1CC1CNC1 [Compound 1873, 5-(3-(Azetidin-3-ylmethyl)-2-methyl-3H-imidazo[4,5-b]pyridin-5-yl)-N-(4,4-difluorocyclohexyl)pyrrolo[2,1-f][1,2,4]triazin-2-amine] | 131
14 | CCOC(=O)[C@H]1CC[C@@H](Nc2ncc3c(-c4ccc5nc(C)n(CC(F)F)c5n4)ccn3n2)CC1 [Compound 1843, Ethyl cis-4-((5-(3-(2,2-difluoroethyl)-2-methyl-3H-imidazo[4,5-b]pyridin-5-yl)pyrrolo[2,1-f][1,2,4]triazin-2-yl)amino)cyclohexane-1-carboxylate] | 33
15 | C[C@]1(O)CC[C@H](Nc2ncc3c(-c4ccc5nccn5c4)ccn3n2)CC1 [Compound 1828, trans-4-((5-(Imidazo[1,2-a]pyridin-6-yl)pyrrolo[2,1-f][l,2,4]triazin-2-yl)amino) -1-methylcyclohexan-1-ol] | 10
16 | CC1(CNc2ncc3c(-c4cnc5nccn5c4)ccn3n2)CC1 [Compound 225, 5-(Imidazo[1,2-a]pyrimidin-6-yl)-N-((1-methylcyclopropyl)methyl)pyrrolo [2,1-f][1,2,4]triazin-2-amine] | 11
17 | Cc1nc2ccc(-c3ccn4nc(NC5CCN(C(=O)[C@@H]6CC6(F)F)CC5)ncc34)nc2n1CC(F)F [Compound 1917, (S)-(2,2-Difluorocyclopropyl)(4-((5-(3-(2,2-difluoroethyl)-2-methyl-3H-imidazo[4,5-b]pyridin-5-yl)pyrrolo[2,1-f] [1,2,4]triazin-2-yl)amino)piperidin-1-yl)methanone] | 9
18 | CC(=O)N1CCC(Nc2ncc3c(-c4ccc5nc(C)n(CC(F)F)c5n4)ccn3n2)CC1 [Compound 1857, 1-(4-((5-(3-(2,2-Difluoroethyl)-2-methyl-3H-imidazo[4,5-b]pyridin-5-yl)pyrrolo[2,1-f][1,2,4]triazin-2-yl)amino)piperidin-1-yl)ethan-1-one] | 3
19 | CN(C)[C@H]1CC[C@@H](Nc2ncc3c(-c4ccc5ncccc5c4)ccn3n2)CC1 [Compound 1336, cis-N^1,N^1-Dimethyl-N^4-(5-(quinolin-6-yl)pyrrolo[2,1-f][1,2,4]triazin-2-yl) cyclohexane-1,4-diamine] | 25
20 | CC(C)CN1CC2(CC(Nc3ncc4c(-c5ccc6ncccc6c5)ccn4n3)C2)C1 [Compound 1771, N-(2-isobutyl-2-azaspiro[3.3]heptan-6-yl)-5-(quinolin-6-yl)pyrrolo[2,1-f] [1,2,4]triazin-2-amine] | 5
21 | Cc1nc2ccc(-c3ccn4nc(N[C@@H]5CCOC[C@H]5O)ncc34)nc2n1CC(F)F [Compound 1866, (3S,4R)-4-((5-(3-(2,2-Difluoroethyl)-2-methyl-3H-imidazo[4,5-b]pyridin-5-yl)pyrrolo[2,1-f][1,2,4]triazin-2-yl)amino)tetrahydro-2H-pyran-3-ol] | 33
22 | CC(C)(F)CNc1ncc2c(-c3ccc4ncc(C(=O)N5CCCC5)n4c3)ccn2n1 [Compound 74, (6-(2-((2-Fluoro-2-methylpropyl)amino)pyrrolo[2,1-f][1,2,4]triazin-5-yl)imidazo[1,2-a]pyridin-3-yl)(pyrrolidin-1-yl)methanone] | 5100
23 | c1cn2cc(-c3ccn4nc(NCC5CCCO5)ncc34)ccc2n1 (stereo not shown) [Compound 21, 5-(Imidazo[1,2-a]pyridin-6-yl)-N-((tetrahydrofuran-2-yl)methyl)pyrrolo[2,1-f][1,2,4]triazin-2-amine] | 61
24 | Cc1nc2ccc(-c3ccn4nc(N[C@@H]5CCOC[C@@H]5O)ncc34)nc2n1CC(F)F [Compound 1865, (3R,4R)-4-((5-(3-(2,2-Difluoroethyl)-2-methyl-3H-imidazo[4,5-b]pyridin-5-yl)pyrrolo[2,1-f][1,2,4]triazin-2-yl)amino)tetrahydro-2H-pyran-3-ol] | 20
25 | FC1(F)CCC(Nc2ncc3c(-c4ccc5nccnc5c4)ccn3n2)CC1 [Compound 1392, N-(4,4-Difluorocyclohexyl)-5-(quinoxalin-6-yl)pyrrolo[2,1-f][1,2,4]triazin-2-amine] | 529
